Data reported in US8975234B2, “Anti-bacterial infection, inflammation, and leukemia composition and use thereof” (priority 2011, dated 2015).
≈ marks a conversion by molar mass, not a printed value. Read-outs that look alike come from different tables or passages of the source.

Legend:
MRSA 18631 = assay: Minimum inhibitory concentration (broth microdilution) and FIC index; format: cell-based, Staphylococcus aureus
Experimental: (§1) A serial of twofold dilution of the tested antibiotics (oxacillin, erythromycin, ampicillin, kanamycin, levofoxacin, vancomycin and doxycycline) was perform by Broth microdilution method to a final concentration of 2-512 μg/mL. The bacterial overnight culture was collected and re-suspended in the Muller-Hilton (M-H) broth. An aliquot of cell suspension (OD600=0.1) was prepared. The bacterial suspensions were plated in 96-well plate and incubated with test antibiotics at 37° C. in a 5% CO2 incubator (Table 1 to Table 4).
(§2) The […], […] and antagonism between two drugs was evaluated by the following formula:
(§3) [formula] The criteria of fractional inhibitory concentration index: […]

MRSA 18271 = assay: as above; format: cell-based, Staphylococcus aureus
Experimental: as §1, §2, §3

MRSA 19615 = assay: as above; format: cell-based, Staphylococcus aureus
Experimental: as §1, §2, §3

[1] = system: MSSA (Methicillin-susceptible Staphylococcus aureus); assay: as above; format: cell-based
Experimental: as §1, §2, §3

[2] = system: standard MRSA strain (ATCC 33591); assay: Minimum inhibitory concentration (broth microdilution); format: cell-based, Staphylococcus aureus; details: Table 1; for MIC: Staphylococcus aureus
Experimental: as §1

K-562 cells = assay: ROS test (DCF-DA); format: cell-based, human; details: pre-treatment 10 μM before Tellimagrandin II 50 μM for 2 hours
Experimental: A radical specific fluorescent dye, 2′,7′-dichlorofluorescein (DCF-DA) was used to detect H2O2/NO-based radicals or O2— in cells respectively.
A total of 3 mL cell solution at the concentration of 1×10^6 K-562 cells per mL was cultured with 6 cm cell culture plates in an incubator supplied with 5% CO2 at 37° C. for 30 minutes so that cells could adapt to the environment. Tellimagrandin II solutions of different concentrations were added by order so that the final concentrations are 0, 30, 40 and 50 μM respectively. The solution was placed in incubator with 5% CO2 at 37° C. for 2 hours before being centrifuged at 3,500 rpm at 4° C. for 5 minutes and then being rinsed by PBS once. 2′,7′-dichlorofluorescein (DCF-DA) was added before the solution was put into dark incubator for 45 minutes and then rinsed by PBS once again. Finally, 1 mL PBS was used to resuspend the cells before BD FACScan was used to detect the fluorescent signal.

DPPH scavenging assay = details: 100 μM; −FeCl2
Experimental: Test reagents, natural extracts and Vitamin C (ascorbic acid) were dissolved in methanol to make a stock solution 10×. Vitamin C was used as the positive control. 120 μM DPPH solution was prepared. Taken 20 μL of stock reagents, natural extracts and Vitamin C on a 96-well microplate, and methanol was added to make up to the total volume of 100 μL. Control was 100 μL methanol. Each sample was mixed with 100 μL DPPH solution and incubated in the dark for 40 minutes. DPPH level of each well was evaluated by detecting the optical density of each well at 517 nm and the results were shown in Table 5.

[3] = Table 3, 18631, Tellimagrandin II (40 μg/ml) +
[4] = Table 3, 18271, Tellimagrandin II (40 μg/ml) +
[5] = Table 3, 19615, Tellimagrandin II (40 μg/ml) +
[6] = Table 3, MSSA, Tellimagrandin II (40 μg/ml) +
[7] = Staphylococcus aureus, MRSA, Table 1, MRSA 18631, read-out: Minimum inhibitory concentration
[8] = Staphylococcus aureus, MRSA, Table 2, 18631, with TG II 30 μg/mL, read-out: MIC
[9] = Staphylococcus aureus, MRSA, Table 2, 18631, with TG II 40 μg/mL, read-out: MIC
[10] = Staphylococcus aureus, MRSA, Table 2, 18631, without TG II, read-out: MIC
[11] = Staphylococcus aureus, MRSA, Table 3, 18631, Tellimagrandin II (40 μg/ml) −, read-out: MIC
[12] = Table 2, 18631, with TG II 30 μg/mL
[13] = Table 2, 18631, with TG II 40 μg/mL
[14] = Staphylococcus aureus, MRSA, Table 1, MRSA 18271, read-out: Minimum inhibitory concentration
[15] = Staphylococcus aureus, MRSA, Table 2, 18271, with TG II 30 μg/mL, read-out: MIC
[16] = Staphylococcus aureus, MRSA, Table 2, 18271, with TG II 40 μg/mL, read-out: MIC
[17] = Staphylococcus aureus, MRSA, Table 2, 18271, without TG II, read-out: MIC
[18] = Staphylococcus aureus, MRSA, Table 3, 18271, Tellimagrandin II (40 μg/ml) −, read-out: MIC
[19] = Table 2, 18271, with TG II 30 μg/mL
[20] = Table 2, 18271, with TG II 40 μg/mL
[21] = Staphylococcus aureus, MRSA, Table 1, MRSA 19615, read-out: Minimum inhibitory concentration
[22] = Staphylococcus aureus, MRSA, Table 2, 19615, with TG II 30 μg/mL, read-out: MIC
[23] = Staphylococcus aureus, MRSA, Table 2, 19615, with TG II 40 μg/mL, read-out: MIC
[24] = Staphylococcus aureus, MRSA, Table 2, 19615, without TG II, read-out: MIC
[25] = Staphylococcus aureus, MRSA, Table 3, 19615, Tellimagrandin II (40 μg/ml) −, read-out: MIC
[26] = Table 2, 19615, with TG II 30 μg/mL
[27] = Table 2, 19615, with TG II 40 μg/mL
[28] = Staphylococcus aureus, MSSA, Table 1, MSSA, read-out: Minimum inhibitory concentration
[29] = Staphylococcus aureus, MSSA, Table 2, Non-drug resistant Staphylococcus aureus, with TG II 30 μg/mL, read-out: MIC
[30] = Staphylococcus aureus, MSSA, Table 2, Non-drug resistant Staphylococcus aureus, without TG II, read-out: MIC
[31] = Staphylococcus aureus, MSSA, Table 3, MSSA, Tellimagrandin II (40 μg/ml) −, read-out: MIC
[32] = Table 2, Non-drug resistant Staphylococcus aureus, with TG II 30 μg/mL

Compound	MIC (MRSA 18631; Staphylococcus aureus, MRSA) [mg/L]	FIC (MRSA 18631; [3])	MIC (MRSA 18631; [3]) [mg/L]	MIC (MRSA 18271; Staphylococcus aureus, MRSA) [mg/L]	FIC (MRSA 18271; [4])	MIC (MRSA 18271; [4]) [mg/L]	MIC (MRSA 19615; Staphylococcus aureus, MRSA) [mg/L]	FIC (MRSA 19615; [5])	MIC (MRSA 19615; [5]) [mg/L]	FIC [1, 6]	MIC [1, 6] [mg/L]	MIC (MRSA 18631; [7]) [mg/L]	MIC (MRSA 18631; [11]) [mg/L]	MIC (MRSA 18271; [14]) [mg/L]	MIC (MRSA 18271; [18]) [mg/L]	MIC (MRSA 19615; [21]) [mg/L]	MIC (MRSA 19615; [25]) [mg/L]	MIC [2] [mg/L]	MIC [1, 28] [mg/L]	MIC [1, 31] [mg/L]	other results
CC1(C)S[C@@H]2[C@H](NC(=O)[C@H](N)c3ccccc3)C(=O)N2[C@H]1C(=O)O [Ampicillin]	512	1.00	512	512	0.031	16	512	1.00	512	0.50	256	–	–	–	–	–	–	–	–	–	MIC ([1]; Staphylococcus aureus, MSSA): 512 mg/L
C[C@H]1c2cccc(O)c2C(=O)C2=C(O)[C@]3(O)C(=O)C(C(N)=O)=C(O)[C@@H](N(C)C)[C@@H]3[C@@H](O)[C@@H]21 [Doxycycline]	–	0.008	2	–	0.004	2	–	0.016	8	0.063	8	256	256	> 512	512	> 512	512	64 (≈ 144 µM)	128	128	MIC (MRSA 18631; [8]): 2 mg/L; MIC (MRSA 18631; [9]): 2 mg/L; MIC (MRSA 18631; [10]): 256 mg/L; FIC (MRSA 18631; [12]): 0.008; FIC (MRSA 18631; [13]): 0.008; MIC (MRSA 18271; [15]): 2 mg/L; MIC (MRSA 18271; [16]): 2 mg/L; MIC (MRSA 18271; [17]): 512 mg/L; FIC (MRSA 18271; [19]): 0.004; FIC (MRSA 18271; [20]): 0.004; MIC (MRSA 19615; [22]): 16 mg/L; MIC (MRSA 19615; [23]): 8 mg/L; MIC (MRSA 19615; [24]): 512 mg/L; FIC (MRSA 19615; [26]): 0.031; FIC (MRSA 19615; [27]): 0.016; MIC [1, 29]: 16 mg/L; MIC ([1]; Staphylococcus aureus, MSSA, Table 2, Non-drug resistant Staphylococcus aureus, with TG II 40 μg/mL, read-out: MIC): 8 mg/L; MIC [1, 30]: 128 mg/L; FIC [1, 32]: 0.125; FIC ([1]; Table 2, Non-drug resistant Staphylococcus aureus, with TG II 40 μg/mL): 0.016
CC[C@H]1OC(=O)[C@H](C)[C@@H](O[C@H]2C[C@@](C)(OC)[C@@H](O)[C@H](C)O2)[C@H](C)[C@@H](O[C@@H]2O[C@H](C)C[C@H](N(C)C)[C@H]2O)[C@](C)(O)C[C@@H](C)C(=O)[C@H](C)[C@@H](O)[C@]1(C)O [Erythromycin]	512	1.00	512	512	1.00	512	512	1.00	512	0.50	64	> 512	–	> 512	–	> 512	–	> 512	128	–	–
NC[C@H]1O[C@H](O[C@H]2[C@H](O)[C@@H](O[C@H]3O[C@H](CO)[C@@H](O)[C@H](N)[C@H]3O)[C@H](N)C[C@@H]2N)[C@H](O)[C@@H](O)[C@@H]1O [Kanamycin]	–	–	–	–	–	–	–	–	–	–	–	> 512	512	> 512	512	> 512	512	> 512	> 512	512	–
C[C@H]1COc2c(N3CCN(C)CC3)c(F)cc3c(=O)c(C(=O)O)cn1c23 [Levofloxacin]	–	2.00	512	–	1.00	512	–	1.00	512	1.00	512	> 512	256	> 512	512	> 512	512	32 (≈ 88.6 µM)	> 512	512	MIC (MRSA 18631; [8]): 512 mg/L; MIC (MRSA 18631; [9]): 512 mg/L; MIC (MRSA 18631; [10]): > 512 mg/L; FIC (MRSA 18631; [12]): 1; FIC (MRSA 18631; [13]): 1; MIC (MRSA 18271; [15]): 512 mg/L; MIC (MRSA 18271; [16]): 512 mg/L; MIC (MRSA 18271; [17]): > 512 mg/L; FIC (MRSA 18271; [19]): 1; FIC (MRSA 18271; [20]): 1; MIC (MRSA 19615; [22]): 512 mg/L; MIC (MRSA 19615; [23]): 512 mg/L; MIC (MRSA 19615; [24]): > 512 mg/L; FIC (MRSA 19615; [26]): 1; FIC (MRSA 19615; [27]): 1; MIC [1, 29]: 8 mg/L; MIC [1, 30]: > 512 mg/L; FIC [1, 32]: 0.016
CC(=O)N[C@@H](CS)C(=O)O [N-acetyl-L-cysteine]	–	–	–	–	–	–	–	–	–	–	–	–	–	–	–	–	–	–	–	–	ROS production (K-562 cells): inhibition of ROS production
CN[C@H](CC(C)C)C(=O)N[C@H]1C(=O)N[C@@H](CC(N)=O)C(=O)N[C@H]2C(=O)N[C@H]3C(=O)N[C@H](C(=O)N[C@H](C(=O)O)c4cc(O)cc(O)c4-c4cc3ccc4O)[C@H](O)c3ccc(c(Cl)c3)Oc3cc2cc(c3O[C@@H]2O[C@H](CO)[C@@H](O)[C@H](O)[C@H]2O[C@H]2C[C@](C)(N)[C@H](O)[C@H](C)O2)Oc2ccc(cc2Cl)[C@H]1O [Vancomycin]	4	1.00	4	4	1.00	4	4	1.00	4	–	>2	–	–	–	–	–	–	–	–	–	MIC ([1]; Staphylococcus aureus, MSSA): > 2 mg/L
O=C1O[C@H]([C@@H](O)CO)C(O)=C1O [Vitamin C, ascorbic acid]	–	–	–	–	–	–	–	–	–	–	–	–	–	–	–	–	–	–	–	–	DPPH free-radical scavenging activity (DPPH scavenging assay): 81.09 ± 0.5%
Penicillin	–	–	–	–	–	–	–	–	–	–	–	–	–	–	–	–	–	–	–	–	Minimum inhibitory concentration (MRSA 18631; Table 1, MRSA 18631): >512 mg/L; Minimum inhibitory concentration (MRSA 18271; Table 1, MRSA 18271): >512 mg/L; Minimum inhibitory concentration (MRSA 19615; Table 1, MRSA 19615): >512 mg/L; Minimum inhibitory concentration [2]: >512 mg/L; Minimum inhibitory concentration ([1]; Table 1, MSSA): >512 mg/L
